Where a name gives a salt, the structure may show the parent alone.
Tests used:
NLRP3 [1] = target: T1, NLRP3 (Homo sapiens, UniProt Q96P20); assay: Human whole blood IL1β release assay; assay type: cell-based; set-up: Human whole blood in Li-heparin tubes was obtained from healthy donors; from tissue; host or cells: human whole blood from healthy donors, LPS-primed, nigericin-stimulated; conditions: human whole blood, 1 μg/ml LPS, compound 3 hrs, nigericin 10 μM 1 hr, IL-1β AlphaLisa; read-out: HWB IC50
Method: Human Whole Blood IL1β Release Assay
For systemic delivery, the ability to inhibit NLRP3 when the compounds are present within the bloodstream is of great importance. For this reason, the NLRP3 inhibitory activity of a number of compounds in human whole blood was investigated in accordance with the following protocol.
Human whole blood in Li-heparin tubes was obtained from healthy donors from a volunteer donor panel. • 1. Plate out 80 μl of whole blood containing 1 μg/ml of LPS in 96-well, clear bottom cell culture plate (Corning #3585) • 2. Add 10 μl compound (8 points half-log dilution with 10 μM top dose) or vehicle (DMSO 0.1% FAC) to the appropriate wells • 3. Incubate for 3 hrs at 37° C., 5% CO2 • 4. Add 10 μl Nigericin (Sigma #N7143) (10 μM FAC) to all wells • 5. Incubate for 1 hr at 37° C., 5% CO2 • 6. At the end of the incubation period, spin plates at 300 xg for 5 mins to pellet cells and remove 20 μl of supernatant and add to 96-well v-bottom plates for IL-1β analysis (note: these plates containing the supernatants can be stored at −80° C. to be analysed at a later date) • 7. IL-1β was measured according to the manufacturer protocol (Perkin Elmer-AlphaLisa IL-1 Kit AL220F-5000) • 8. IC50 data is fitted to a non-linear regression equation (log inhibitor vs response-variable slope 4-parameters)

NLRP3 [2] = target: T1, NLRP3; assay: THP-1 cells pyroptosis assay; assay type: cell-based; set-up: Seed THP-1 cells (25,000 cells/well) containing 1.0 μg/ml LPS; host or cells: THP-1 cells, LPS-primed, nigericin-stimulated; conditions: THP-1 cells, 1.0 μg/ml LPS, compound 3 hrs, nigericin 5 μM 1 hr, resazurin readout; read-out: THP IC50
Text: NLRP and Pyroptosis It is well established that the activation of NLRP3 leads to cell pyroptosis and this feature plays an important part in the manifestation of clinical disease (Yan-gang Liu et al., Cell Death &Disease, 2017, 8(2), e2579; Alexander Wree et al., Hepatology, 2014, 59(3), 898-910; Alex Baldwin et al., Journal of Medicinal Chemistry, 2016, 59(5), 1691-171; Ema Ozaki et al., Journal of Inflammation Research, 2015, 8, 15-27; Zhen Xie & Gang Zhao, Neuroimmunology Neuroinflammation, 2014, 1(2), 60-65; Mattia Cocco et al., Journal of Medicinal Chemistry, 2014, 57(24), 10366-10382; T. Satoh et al., Cell Death &Disease, 2013, 4, e644). Therefore, it is anticipated that inhibitors of NLRP3 will block pyroptosis, as well as the release of pro-inflammatory cytokines (e.g. […]) from the cell. THP-1 Cells: Culture and Preparation THP-1 cells (ATCC #TIB-202) were grown in RPMI containing L-glutamine (Gibco #11835) supplemented with imM sodium pyruvate (Sigma #S8636) and penicillin (100 units/ml)/streptomycin (0.1 mg/ml) (Sigma #P4333) in 10% Fetal Bovine Serum (FBS) (Sigma #Fo804). The cells were routinely passaged and grown to confluency (˜10^6 cells/ml). On the day of the experiment, THP-1 cells were harvested and resuspended into RPMI medium (without FBS). The cells were then counted and viability (>90%) checked by Trypan blue (Sigma #T8154). Appropriate dilutions were made to give a concentration of 625,000 cells/ml. To this diluted cell solution was added LPS (Sigma #L4524) to give a […] Final Assay Concentration (FAC). 40 μl of the final preparation was aliquoted into each well of a 96-well plate. The plate thus prepared was used for compound screening. THP-1 Cells Pyroptosis Assay The following method step-by-step assay was followed for compound screening. • 1. Seed THP-1 cells (25,000 cells/well) containing 1.0 μg/ml LPS in 40 μl of RPMI medium (without FBS) in 96-well, black walled, clear bottom cell culture plates coated with poly-D-lysine (VWR #734-0317) • 2. Add […] compound (8 points half-log dilution, with 10 μM top dose) or vehicle (DMSO 0.1% FAC) to the appropriate wells • 3. […] Add 5 μl nigericin (Sigma #N7143) (FAC 5 μM) to all wells • 5. […] At the end of the incubation period, spin plates at 300 xg for 3 mins and remove supernatant • 7. Then add 50 μl of resazurin (Sigma #R7017) (FAC 100μ M resazurin in RPMI medium without FBS) and incubate plates for a further 1-2 hrs at 37° C. and 5% CO2 • 8. Plates were read in an Envision reader at Ex 560 nm and Em 590 nm • 9. IC50 data is fitted to a non-linear regression equation (log inhibitor vs response-variable slope 4-parameters) [table]

[3] = Pharmacokinetic parameters in male Sprague Dawley rats (intravenous and oral administration); assay type: in vivo; conditions: intravenous administration, rat plasma; dose per compound (mg/kg)
Method: Pharmacokinetic parameters were determined in male Sprague Dawley rats (Charles River, UK, 250-350 g; or Vital River Laboratory Animal Technology Co Ltd, Beijing, China, 7-9 weeks old). Animals were individually housed during the study and maintained under a 12 h light/dark cycle. Animals had free access to food and water except that some orally dosed animals were food deprived overnight prior to the study.
For intravenous administration, compounds were formulated as a solution in water or DMSO:PBS [10:90] in 2 mL/kg dosing volume and administered via tail vein. For oral administration, compounds were formulated as a solution in water or DMSO:water [10:90] in 5 mL/kg dosing volume and administered orally.
Serial blood samples (about 120-300 μL) were taken from each animal at each of 8 time-points post dose (0.083, 0.25, 0.5, 1, 2, 4, 8 and 24 h) or at each of 12 time-points post dose (0.03, 0.1, 0.17, 0.25, 0.5, 1, 2, 4, 6, 8,12 and 24 h) or pre-dose and at each of 9 time-points post dose (0.25, 0.5, 1, 2, 4, 6, 8, 12 and 24 h). Samples were held on ice for no longer than 30 minutes before centrifugation (10,000 rpm (8,385 g) for 3 minutes; or 5,696 rpm (3,000 g) for 15 minutes) for plasma generation. Plasma was frozen on dry ice prior to bioanalysis. PK parameters were generated from LC-MS/MS data using Dotmatics or Phoenix WinNonlin 6.3 software.

T1 sequence (Q96P20 whole entry): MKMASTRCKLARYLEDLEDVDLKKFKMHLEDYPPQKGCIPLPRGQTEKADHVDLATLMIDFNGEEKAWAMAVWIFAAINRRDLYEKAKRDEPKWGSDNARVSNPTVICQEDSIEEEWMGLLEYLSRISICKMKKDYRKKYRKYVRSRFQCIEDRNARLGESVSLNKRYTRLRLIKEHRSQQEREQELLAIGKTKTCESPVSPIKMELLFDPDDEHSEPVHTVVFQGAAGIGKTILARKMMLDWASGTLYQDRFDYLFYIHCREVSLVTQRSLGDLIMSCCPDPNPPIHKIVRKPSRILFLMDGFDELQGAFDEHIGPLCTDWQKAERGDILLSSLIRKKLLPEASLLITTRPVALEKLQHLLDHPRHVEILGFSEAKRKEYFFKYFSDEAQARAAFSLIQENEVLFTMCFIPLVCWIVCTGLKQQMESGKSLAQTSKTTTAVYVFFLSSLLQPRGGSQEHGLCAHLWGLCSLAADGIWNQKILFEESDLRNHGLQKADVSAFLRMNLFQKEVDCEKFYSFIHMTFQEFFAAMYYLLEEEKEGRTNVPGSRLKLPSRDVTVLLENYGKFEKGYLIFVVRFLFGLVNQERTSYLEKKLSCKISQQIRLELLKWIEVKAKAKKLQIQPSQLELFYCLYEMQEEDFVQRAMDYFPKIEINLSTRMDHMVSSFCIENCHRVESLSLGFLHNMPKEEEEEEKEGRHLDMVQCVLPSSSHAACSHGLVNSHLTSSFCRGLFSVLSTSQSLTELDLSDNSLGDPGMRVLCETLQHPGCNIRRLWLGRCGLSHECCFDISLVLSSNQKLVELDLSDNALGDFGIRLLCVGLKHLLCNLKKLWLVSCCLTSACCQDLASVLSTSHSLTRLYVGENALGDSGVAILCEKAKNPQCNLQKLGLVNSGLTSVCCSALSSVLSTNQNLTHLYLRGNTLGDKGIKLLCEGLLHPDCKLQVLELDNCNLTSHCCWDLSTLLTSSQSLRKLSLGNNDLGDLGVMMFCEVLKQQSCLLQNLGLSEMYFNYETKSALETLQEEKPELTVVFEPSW

With CN(C)C(=O)Cn1ccc(S(=O)(=O)NC(=O)Nc2c3c(cc4c2CCC4)CCC3)n1 [Example 1, 2-(3-(N-((1,2,3,5,6,7-Hexahydro-s-indacen-4-yl)carbamoyl)sulfamoyl)-1H-pyrazol-1-yl)-N,N-dimethylacetamide, sodium salt] the IC50 (NLRP3 [1]) was < 10000 nM and the IC50 (NLRP3 [2]) was < 640 nM.

For CNC(=O)Cn1ccc(S(=O)(=O)NC(=O)Nc2c3c(cc4c2CCC4)CCC3)n1 [Example 2, 2-(3-(N-((1,2,3,5,6,7-Hexahydro-s-indacen-4-yl)carbamoyl)sulfamoyl)-1H-pyrazol-1-yl)-N-methylacetamide], the IC50 (NLRP3 [1]) was < 3200 nM and the IC50 (NLRP3 [2]) was < 640 nM.

For O=C(Nc1c2c(cc3c1CCC3)CCC2)NS(=O)(=O)c1ccn(CCN2CCCC2)n1 [Example 3, N-((1,2,3,5,6,7-Hexahydro-s-indacen-4-yl)carbamoyl)-1-(2-(pyrrolidin-1-yl)ethyl)-1H-pyrazole-3-sulfonamide, sodium salt], the IC50 (NLRP3 [1]) was < 1600 nM and the IC50 (NLRP3 [2]) was < 640 nM.

In the case of CN(C)C1(Cn2ccc(S(=O)(=O)NC(=O)Nc3c4c(cc5c3CCC5)CCC4)n2)CC1 [Example 11, 1-((1-(Dimethylamino)cyclopropyl)methyl)-N-((1,2,3,5,6,7-hexahydro-s-indacen-4-yl)carbamoyl)-1H-pyrazole-3-sulfonamide], the IC50 (NLRP3 [1]) is reported as < 1600 nM and the IC50 (NLRP3 [2]) is reported as < 640 nM.

For CN1CC(n2ccc(S(=O)(=O)NC(=O)Nc3c4c(cc5c3CCC5)CCC4)n2)C1 [Example 12, N-((1,2,3,5,6,7-Hexahydro-s-indacen-4-yl)carbamoyl)-1-(1-methylazetidin-3-yl)-1H-pyrazole-3-sulfonamide], the IC50 (NLRP3 [1]) was < 1600 nM and the IC50 (NLRP3 [2]) was < 2560 nM.

In the case of CNCCn1ccc(S(=O)(=O)NC(=O)Nc2c3c(cc4c2CCC4)CCC3)n1 [Example 13, N-((1,2,3,5,6,7-Hexahydro-s-indacen-4-yl)carbamoyl)-1-(2-(methylamino)ethyl)-1H-pyrazole-3-sulfonamide], the IC50 (NLRP3 [1]) is reported as < 800 nM and the IC50 (NLRP3 [2]) is reported as < 640 nM.

With O=C(Nc1c2c(cc3c1CCC3)CCC2)NS(=O)(=O)c1ccn(C2CNC2)n1 [Example 14, 1-(Azetidin-3-yl)-N-((1,2,3,5,6,7-hexahydro-s-indacen-4-yl)carbamoyl)-1H-pyrazole-3-sulfonamide] the IC50 (NLRP3 [1]) was < 3200 nM and the IC50 (NLRP3 [2]) was < 640 nM.

For CN(CCO)Cc1cc(S(=O)(=O)NC(=O)Nc2c3c(cc4c2CCC4)CCC3)nn1C [Example 124, N-((1,2,3,5,6,7-Hexahydro-s-indacen-4-yl)carbamoyl)-5-(((2-hydroxyethyl)(methyl)amino)methyl)-1-methyl-1H-pyrazole-3-sulfonamide], the IC50 (NLRP3 [2]) was < 160 nM, the AUC [3] was 2067.0 ng·h/mL and the Cl [3] was 8.1 mL/min/kg. For the same compound, the T1/2 [3] was 14.2 h and the Vdss [3] was 1.9 L/kg.

With CC(C)c1cccc(C(C)C)c1NC(=O)NS(=O)(=O)c1cc(C(=O)N2CCCC2)n(C)n1 [Example 163, N-((2,6-Diisopropylphenyl)carbamoyl)-1-methyl-5-(pyrrolidine-1-carbonyl)-1H-pyrazole-3-sulfonamide] the IC50 (NLRP3 [2]) was < 2560 nM.

In the case of CNC(=O)c1cc(S(=O)(=O)NC(=O)Nc2c3c(cc4c2CCC4)CCC3)nn1C [Example 166, 3-(N-((1,2,3,5,6,7-Hexahydro-s-indacen-4-yl)carbamoyl)sulfamoyl)-N,1-dimethyl-1H-pyrazole-5-carboxamide], the IC50 (NLRP3 [2]) is reported as < 2560 nM.

In the case of CC(C)c1cccc(C(C)C)c1NC(=O)NS(=O)(=O)c1cc(C(=O)N(C)CCO)n(C)n1 [Example 173, 3-(N-((2,6-Diisopropylphenyl)carbamoyl)sulfamoyl)-N-(2-hydroxyethyl)-N,1-dimethyl-1H-pyrazole-5-carboxamide], the IC50 (NLRP3 [2]) is reported as < 2560 nM.

In the case of Cn1nc(S(=O)(=O)NC(=O)Nc2c3c(cc4c2CCC4)CCC3)cc1C(=O)NCCO [Example 174, 3-(N-((1,2,3,5,6,7-Hexahydro-s-indacen-4-yl)carbamoyl)sulfamoyl)-N-(2-hydroxyethyl)-1-methyl-1H-pyrazole-5-carboxamide, partial ammonium salt], the IC50 (NLRP3 [2]) is reported as < 10000 nM.

For COCCNC(=O)c1cc(S(=O)(=O)NC(=O)Nc2c3c(cc4c2CCC4)CCC3)nn1C [Example 175, 3-(N-((1,2,3,5,6,7-Hexahydro-s-indacen-4-yl)carbamoyl)sulfamoyl)-N-(2-methoxyethyl)-1-methyl-1H-pyrazole-5-carboxamide, partial ammonium salt], the IC50 (NLRP3 [2]) was < 10000 nM.

With CN(C)CCn1cc(S(=O)(=O)NC(=O)Nc2c3c(cc4c2CCC4)CCC3)cn1 [Example 182, 1-(2-(Dimethylamino)ethyl)-N-((1,2,3,5,6,7-hexahydro-s-indacen-4-yl)carbamoyl)-1H-pyrazole-4-sulfonamide] the IC50 (NLRP3 [2]) was < 2560 nM.

With CC(C)c1cc(Cl)cc(C(C)C)c1NC(=O)NS(=O)(=O)c1ccn(C(C)(C)CN(C)C)n1 [Example 200, N-((4-Chloro-2,6-diisopropylphenyl)carbamoyl)-1-(1-(dimethylamino)-2-methylpropan-2-yl)-1H-pyrazole-3-sulfonamide] the IC50 (NLRP3 [2]) was < 2560 nM.

For CC(C)c1cc(F)cc(C(C)C)c1NC(=O)NS(=O)(=O)c1ccn(C(C)(C)CN(C)C)n1 [Example 201, 1-(1-(Dimethylamino)-2-methylpropan-2-yl)-N-((4-fluoro-2,6-diisopropylphenyl)carbamoyl)-1H-pyrazole-3-sulfonamide], the IC50 (NLRP3 [2]) was < 2560 nM.

With C[C@@H](CN(C)C)n1ccc(S(=O)(=O)NC(=O)Nc2c3c(cc4c2CCC4)CCC3)n1 [Example 203, (S)-1-(1-(Dimethylamino)propan-2-yl)-N-((1,2,3,5,6,7-hexahydro-s-indacen-4-yl)carbamoyl)-1H-pyrazole-3-sulfonamide] the IC50 (NLRP3 [2]) was < 640 nM.
